Where two headings read alike, the source gives them in different places. Where only a bound is given, the exact number is not on record here.

From patent publication US20130296311A1, “INHIBITORS OF HCV NS5A” (PRESIDIO PHARMACEUTICALS, INC., priority 2010, published 2013) come the findings set out here.

The assay has as its system HCV 1b_Huh-Luc/Neo-ET cell line persistently expressing a bicistronic genotype 1b replicon in Huh 7 cells. The assay can be described thus: HCV replicon assay (luciferase readout, 72 h). As to conditions: Hepatitis C virus. In kind it is cell-based, HCV genotype 1b. The method, then: Biological activity of the compounds of the invention was determined using an HCV replicon assay. The HCV 1b_Huh-Luc/Neo-ET cell line persistently expressing a bicistronic genotype 1b replicon in Huh 7 cells was obtained from ReBLikon GMBH. This cell line was used to test compound inhibition using luciferase enzyme activity readout as a measurement of compound inhibition of replicon levels.
On Day 1 (the day after plating), each compound is added in triplicate to the cells. Plates incubated for 72 h prior to running the luciferase assay. Enzyme activity was measured using a Bright-Glo Kit (cat. number E2620) manufactured by Promega Corporation. The following equation was used to generate a percent control value for each compound.
% Control=(Average Compound Value/Average Control)*100
The EC50 value was determined using GraphPad Prism and the following equation:
Y=Bottom+(Top-Bottom)/(1+10̂((LogIC50−X)*HillSlope))
EC50 values of compounds are determined several times in the replicon assay.
Example compounds of the disclosed invention are illustrated in Tables 1-16 attached as appendices. The tables show inhibitory activity of many of the example compounds with respect to HCV 1b. […] The tables further provide mass spectrometry results for the synthesized example compounds.
For orientation: A replicon is a self-replicating genome or part of one, used to study replication in cells.

Where [1] appears, read: Huh-7, read-out: Inhibition of HCV genotype 1b.
[2] abbreviates: Huh-7, 72 h, read-out: Inhibition of HCV genotype 1b.

For the compound `COC(=O)N[C@H](C(=O)N1CCC[C@H]1c1ncc(-c2ccc3cc(C#Cc4[nH]c([C@@H]5CCCN5C(=O)[C@@H](NC(=O)OC)C(C)C)nc4C#N)ccc3c2)[nH]1)C(C)C` [Compound 1257], the EC50 under setting [1] was under 1 nM.

As for `COC(=O)N[C@H](C(=O)N1CCC[C@H]1c1nc2ccc(C#Cc3ccc(-c4cnc([C@@H]5CCCN5C(=O)[C@@H](C(C)C)N(C)C)[nH]4)cc3)cc2[nH]1)C(C)C` [Compound 865], under setting [2], the EC50 is under 1 nM.

For the compound `CC(C)[C@@H](NC(=O)C1CC1)C(=O)N1CCC[C@H]1c1ncc(-c2ccc(C#Cc3ccc(-c4cnc([C@@H]5CCCN5C(=O)[C@H](NC(=O)C5CC5)C(C)C)[nH]4)cc3)cc2)[nH]1` [Compound 155], under setting [2], the EC50 was 1 to 9.9 nM.

Regarding `COC(=O)N[C@H](C(=O)N1CCC[C@H]1c1nc2ccc(C#Cc3ccc(-c4cnc([C@@H]5CCCN5C(=O)[C@H](NC(=O)OC)C(C)C)[nH]4)cc3)cc2[nH]1)C(C)C` [Compound 1053], the EC50 under setting [2] is under 1 nM.

As for `COC(=O)N[C@H](C(=O)N1CCC[C@H]1c1nc2ccc(C#Cc3ccc(-c4cnc([C@@H]5CCCN5C(=O)[C@H](C(C)C)N(C)C)[nH]4)cc3)cc2[nH]1)C(C)C` [Compound 866], the EC50 under setting [2] was under 1 nM.

With `CN(C)[C@@H](C(=O)N1CCC[C@H]1c1ncc(-c2ccc(C#Cc3ccc(-c4cnc([C@@H]5CCCN5C(=O)[C@H](NS(C)(=O)=O)c5ccccc5)[nH]4)cc3)cc2)[nH]1)c1ccccc1` [Compound 228], the EC50 under setting [2] is under 1 nM.

On to `COC(=O)N[C@@H](C)C(=O)N1CCC[C@H]1c1ncc(-c2ccc(C#Cc3ccc4nc([C@@H]5CCCN5C(=O)[C@H](C)NC(=O)OC)[nH]c4c3)cc2)[nH]1` [Compound 1028], for which, under setting [2], the EC50 is under 1 nM.

For the compound `COC(=O)N[C@H](C(=O)N1CCC[C@H]1c1ncc(-c2ccc(C#Cc3ccc4nc([C@@H]5CCCN5C(=O)[C@@H](NC(=O)OC)C(C)C)[nH]c4c3)cc2F)[nH]1)C(C)C` [Compound 1223], under setting [1], the EC50 is under 1 nM.

As for `COC(=O)N[C@@H](C(=O)N1CCC[C@H]1c1ncc(C#Cc2ccc(C#Cc3cnc([C@@H]4CCCN4C(=O)[C@@H](c4ccccc4)N4CCCCC4)[nH]3)cc2)[nH]1)c1ccccc1` [Compound 312], the EC50 under setting [2] is under 1 nM.

As to `COC(=O)N[C@@H](C(=O)N1CCC[C@H]1c1ncc(-c2ccc(C#Cc3ccc(-c4cnc([C@@H]5CCCN5C(=O)[C@H](NC(=O)C5CCCN5C)c5ccccc5)[nH]4)cc3)cc2)[nH]1)c1ccccc1` (stereo partly shown) [Compound 203], the EC50 under setting [2] is under 1 nM.

Take `O=C(N[C@@H](C(=O)N1CCC[C@H]1c1ncc(-c2ccc(C#Cc3ccc(-c4cnc([C@@H]5CCCN5C(=O)[C@H](NC(=O)N5CCCCC5)c5ccccc5)[nH]4)cc3)cc2)[nH]1)c1ccccc1)N1CCCCC1` [Compound 250]: the EC50 under setting [2] is under 1 nM.

With `C[C@@H](NC(=O)[C@@H]1CCCN1C(=O)[C@H](NC(=O)C1CC1)c1ccccc1)c1ccc(C#Cc2cnc([C@@H]3CCCN3C(=O)[C@H](NC(=O)C3CC3)c3ccccc3)[nH]2)cc1` [Compound 135], the EC50 under setting [2] was over 1000 nM.

Regarding `CC[C@H](C)[C@H](NC(=O)OC)C(=O)N1CCC[C@H]1c1ncc(-c2ccc(C#Cc3ccc(-c4cnc([C@@H]5CCCN5C(=O)[C@@H](NC(=O)OC)[C@@H](C)CC)[nH]4)cc3)cc2)[nH]1` [Compound 1216], the EC50 under setting [1] was under 1 nM.

`O=C(N[C@@H](C(=O)N1CCC[C@H]1c1ncc(-c2ccc(C#Cc3ccc(-c4cnc([C@@H]5CCCN5C(=O)[C@@H](c5ccccc5)N5CCCCC5)[nH]4)cc3)cc2)[nH]1)c1ccccc1)N1CCOCC1` [Compound 209]: the EC50 under setting [2] is under 1 nM.

With `COC(=O)N[C@H](C(=O)N1CCC[C@H]1c1nc2ccc(C#Cc3ccc(-c4cnc([C@@H]5CCCN5C(=O)[C@H](NC(=O)OC)c5ccccc5)[nH]4)cc3)cc2[nH]1)C(C)C` [Compound 1022], under setting [2], the EC50 was under 1 nM.

Regarding `C#CC[C@H](NC(=O)OC)C(=O)N1CCC[C@H]1c1nc2ccc(C#Cc3ccc4c(c3)CCCc3nc([C@@H]5CCCN5C(=O)[C@@H](NC(=O)OC)C(C)C)[nH]c3-4)cc2[nH]1` [Compound 1284], the EC50 under setting [1] is under 1 nM.

In the case of `CNC(=O)N[C@@H](C(=O)N1CCC[C@H]1c1ncc(-c2ccc(C#Cc3ccc(-c4cnc([C@@H]5CCCN5C(=O)[C@H](NC(=O)C5CC5)c5ccccc5)[nH]4)cc3)cc2)[nH]1)c1ccccc1` [Compound 997], the EC50 under setting [2] is under 1 nM.

In the case of `O=C(N[C@@H](C(=O)N1CCC[C@H]1c1ncc(C#Cc2ccc(-c3ccc(-c4cnc([C@@H]5CCCN5C(=O)[C@H](NC(=O)N5CCOCC5)c5ccccc5)[nH]4)cc3)cc2)[nH]1)c1ccccc1)N1CCOCC1` [Compound 761], under setting [2], the EC50 is under 1 nM.

Take `O=C(N[C@@H](C(=O)N1CCC[C@H]1c1cc(-c2ccc(C#Cc3ccc(-c4cnc([C@@H]5CCCN5C(=O)[C@H](NC(=O)N5CCOCC5)c5ccccc5)[nH]4)cc3)cc2)n[nH]1)c1ccccc1)N1CCOCC1` [Compound 220]: the EC50 under setting [2] is under 1 nM.

In the case of `COC(=O)N[C@@H](C(=O)N1CCC[C@H]1c1ncc(-c2ccc(C#Cc3ccc(-c4cnc([C@@H]5CCCN5C(=O)Cc5cccnc5)[nH]4)cc3)cc2)[nH]1)c1ccccc1` [Compound 181], the EC50 under setting [2] was under 1 nM.

Turning to `O=C(N[C@@H](C(=O)N1CCC[C@H]1c1ncc(-c2ccc(C#Cc3ccc(-c4cnc([C@@H]5CCCN5C(=O)[C@H](NC(=O)N5CCOCC5)c5ccccc5)[nH]4)cc3)cc2)[nH]1)c1ccccc1)C1CC1` [Compound 239], the EC50 under setting [2] is under 1 nM.

For `C[C@@H](NC(=O)OC(C)(C)C)C(=O)N1CCC[C@H]1c1ncc(C#Cc2ccc(-c3cnc([C@@H]4CCCN4C(=O)[C@@H](C)NC(=O)OC(C)(C)C)[nH]3)cc2)[nH]1` [Compound 104], under setting [2], the EC50 is 1 to 9.9 nM.

As for `C[C@@H]1OC(=O)N[C@H]1C(=O)N1CCC[C@H]1c1ncc(-c2ccc(C#Cc3ccc(-c4cnc([C@@H]5CCCN5C(=O)[C@@H]5NC(=O)O[C@H]5C)[nH]4)cc3)cc2)[nH]1` [Compound 1000], the EC50 under setting [2] lay in the range of 10 to 999 nM.

For `O=C(N[C@@H](C(=O)N1CCC[C@H]1c1ncc(-c2ccc(C#Cc3ccc(-c4cnc([C@@H]5CCCN5C(=O)[C@H](NC(=O)OC5CCOCC5)c5ccccc5)[nH]4)c(F)c3)cc2)[nH]1)c1ccccc1)OC1CCOCC1` [Compound 1014], the EC50 under setting [2] is under 1 nM.

For the compound `COC(=O)N[C@H](C(=O)N1CCC[C@H]1c1ncc(-c2cccc3c(C#Cc4ccc5nc([C@@H]6CCCN6C(=O)[C@@H](NC(=O)OC)C(C)C)[nH]c5c4)cccc23)[nH]1)C(C)C` [Compound 1112], the EC50 under setting [2] is under 1 nM.

As to `COC(=O)N[C@H](C(=O)N1CCC[C@H]1c1ncc(-c2ccc(C#Cc3ccc4nc([C@@H]5CCCN5C(=O)[C@@H](NC(=O)OC)[C@@H](C)OC)[nH]c4n3)cc2)[nH]1)[C@@H](C)OC` [Compound 1252], under setting [1], the EC50 is under 1 nM.

Turning to `COC(=O)N[C@@H](C(=O)N1CCC[C@H]1c1ncc(-c2ccc(C#Cc3ccc(-c4cnc([C@@H]5CCCN5C(=O)[C@H](C)c5ccccc5)[nH]4)cc3)cc2)[nH]1)c1ccccc1` [Compound 256], the EC50 under setting [2] was under 1 nM.

`COC(=O)N[C@@H](C(=O)N1CCC[C@H]1CNC(=O)c1ccc(C#Cc2ccc3nc([C@@H]4CCCN4C(=O)[C@H](NC(=O)OC)c4ccccc4)[nH]c3c2)cn1)c1ccccc1` [Compound 1241]: the EC50 under setting [1] was under 1 nM.

As to `COC(=O)N[C@H](C(=O)N1CCC[C@H]1c1ncc(-c2ccc(C#Cc3ccc(-c4cnc([C@@H]5CCCN5C(=O)[C@@H](c5ccccc5)N(C)C)[nH]4)cc3)cc2)[nH]1)C(C)C` [Compound 955], under setting [2], the EC50 was under 1 nM.

For `CC(C)(C)OC(=O)N[C@@H](C(=O)N1CCC[C@H]1C(=O)NCc1ccc(C#Cc2ccc(-c3cnc([C@@H]4CCCN4C(=O)[C@H](NC(=O)OC(C)(C)C)c4ccccc4)[nH]3)cc2)cc1)c1ccccc1` [Compound 189], under setting [2], the EC50 was under 1 nM.

`CN(C)C(=O)N[C@@H](C(=O)N1CCC[C@H]1c1cc(-c2ccc(C#Cc3ccc(-c4cnc([C@@H]5CCCN5C(=O)[C@H](NC(=O)N(C)C)c5ccccc5)[nH]4)cc3)cc2)n[nH]1)c1ccccc1` [Compound 221]: the EC50 under setting [2] is under 1 nM.

As to `COC(=O)N[C@H](C(=O)N1CCC[C@H]1c1ncc(-c2ccc3cc(C#Cc4[nH]c([C@@H]5CCCN5C(=O)[C@@H](NC(=O)OC)[C@@H](C)OC)nc4C(F)(F)F)ccc3c2)[nH]1)C(C)C` [Compound 1258], under setting [1], the EC50 was under 1 nM.

In the case of `COC(=O)N[C@@H](C(=O)N1CCC[C@H]1c1ncc(C#Cc2ccc(C#Cc3cnc([C@@H]4CCCN4C(=O)[C@@H](c4ccccc4)N4CCCC4)[nH]3)cc2)[nH]1)c1ccccc1` [Compound 311], under setting [2], the EC50 was under 1 nM.

For `COC(=O)N[C@H](C(=O)N1CCC[C@H]1c1ncc(C#Cc2ccc(-c3ccc4nc([C@@H]5CCCN5C(=O)[C@@H](NC(=O)OC)C(C)C)[nH]c4c3)nc2)[nH]1)C(C)C` [Compound 1086], the EC50 under setting [2] was under 1 nM.

Turning to `COC(=O)N[C@@H](C(=O)N1CCC[C@H]1c1ncc(C#Cc2ccc(C#Cc3cnc([C@@H]4CCCN4C(=O)[C@@H](c4ccccc4)N4CCOCC4)[nH]3)cc2)[nH]1)c1ccccc1` [Compound 313], under setting [2], the EC50 was under 1 nM.

On to `COC(=O)N[C@H](C(=O)N1CCC[C@H]1c1ncc(-c2ccc(C#Cc3ccc(-c4cnc([C@@H]5CCCN5C(=O)[C@@H](NC(=O)OC)C(C)(C)O)[nH]4)cc3)cc2)[nH]1)C(C)C` [Compound 994], for which, under setting [2], the EC50 is under 1 nM.

On to `COC(=O)N[C@H](C(=O)N1CCC[C@H]1c1ncc(-c2ccc(C#Cc3ccc4nc([C@@H]5CCCN5C(=O)[C@H](NC(=O)OC)c5ccccc5)[nH]c4c3)cc2)[nH]1)C(C)C` [Compound 1023], for which the EC50 under setting [2] is under 1 nM.
